Laboratory results as given in PubChem BioAssay (NCI).
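Step 1: Grow cells in 96-well plates. Step 2: Expose to compound for 48 hours at 5 concentrations. Step 3: Interpolate endpoints linearly; if unreached, use highest concentration. Here, GI50 denotes the concentration required for 50% inhibition of growth. TGI: total growth inhibition.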

Key:
Assay in all cases: NCI tumour cell line growth inhibition, 48 h
UACC-62 melanoma = test system: UACC-62 melanoma
MDA-MB-231 breast = test system: MDA-MB-231 breast
MOLT-4 leukemia = test system: MOLT-4 leukemia
SNB-75 CNS = test system: SNB-75 CNS
HS 578T breast = test system: HS 578T breast
HOP-62 NSCLC = test system: HOP-62 NSCLC
M14 melanoma = test system: M14 melanoma
UACC-257 melanoma = test system: UACC-257 melanoma
SR leukemia = test system: SR leukemia
NCI-H460 lung = test system: NCI-H460 lung
BT-549 breast = test system: BT-549 breast
A549 NSCLC = test system: A549 NSCLC
A498 renal = test system: A498 renal
DU-145 prostate = test system: DU-145 prostate
NCI-H23 lung = test system: NCI-H23 lung
HCT-116 colon = test system: HCT-116 colon
KM12 colon = test system: KM12 colon
EKVX NSCLC = test system: EKVX NSCLC
SF-295 CNS = test system: SF-295 CNS
SNB-19 CNS = test system: SNB-19 CNS
IGROV1 ovarian = test system: IGROV1 ovarian
OVCAR-4 ovarian = test system: OVCAR-4 ovarian
MDA-MB-435 = test system: MDA-MB-435
ACHN renal = test system: ACHN renal
CAKI-1 renal = test system: CAKI-1 renal
OVCAR-5 ovarian = test system: OVCAR-5 ovarian
SF-268 CNS = test system: SF-268 CNS
SK-MEL-28 melanoma = test system: SK-MEL-28 melanoma
LOX IMVI melanoma = test system: LOX IMVI melanoma
HOP-92 NSCLC = test system: HOP-92 NSCLC
T-47D breast = test system: T-47D breast
SK-MEL-2 melanoma = test system: SK-MEL-2 melanoma
COLO 205 colon = test system: COLO 205 colon
CCRF-CEM leukemia = test system: CCRF-CEM leukemia
PC-3 prostate = test system: PC-3 prostate
RXF 393 renal = test system: RXF 393 renal
NCI-H522 lung = test system: NCI-H522 lung
HT29 colon = test system: HT29 colon
SN12C renal = test system: SN12C renal
UO-31 renal = test system: UO-31 renal
SF-539 CNS = test system: SF-539 CNS
U251 CNS = test system: U251 CNS
786-0 renal = test system: 786-0 renal
MALME-3M melanoma = test system: MALME-3M melanoma
NCI-H226 lung = test system: NCI-H226 lung
SK-OV-3 ovarian = test system: SK-OV-3 ovarian
RPMI-8226 leukemia = test system: RPMI-8226 leukemia
K-562 leukemia = test system: K-562 leukemia
HCC-2998 colon = test system: HCC-2998 colon
NCI/ADR-RES ovarian = test system: NCI/ADR-RES ovarian
OVCAR-3 ovarian = test system: OVCAR-3 ovarian
SW-620 colon = test system: SW-620 colon
MCF7 breast = test system: MCF7 breast
HCT-15 colon = test system: HCT-15 colon
SK-MEL-5 melanoma = test system: SK-MEL-5 melanoma
TK-10 renal = test system: TK-10 renal
OVCAR-8 ovarian = test system: OVCAR-8 ovarian

SMILES: Cc1ccc(NC(=O)Nc2nc3ccc([N+](=O)[O-])cc3s2)cc1
- GI50 (UACC-62 melanoma): 2.77 µM
- TGI (UACC-62 melanoma): 13.7 µM
- GI50 (MDA-MB-231 breast): 3.04 µM
- TGI (MDA-MB-231 breast): 10.3 µM
- GI50 (MOLT-4 leukemia): 2.09 µM
- TGI (MOLT-4 leukemia): 6.33 µM
- GI50 (SNB-75 CNS): 1.95 µM
- TGI (SNB-75 CNS): 6.27 µM
- GI50 (HS 578T breast): 3.02 µM
- TGI (HS 578T breast): 13.9 µM
- GI50 (HOP-62 NSCLC): 3.1 µM
- TGI (HOP-62 NSCLC): 10.7 µM
- GI50 (M14 melanoma): 2.92 µM
- TGI (M14 melanoma): 10.6 µM
- GI50 (UACC-257 melanoma): 1.82 µM
- TGI (UACC-257 melanoma): 6.78 µM
- GI50 (SR leukemia): 1.29 µM
- TGI (SR leukemia): 5.06 µM
- GI50 (NCI-H460 lung): 2.84 µM
- TGI (NCI-H460 lung): 10.4 µM
- GI50 (BT-549 breast): 2.02 µM
- TGI (BT-549 breast): 5.88 µM
- GI50 (A549 NSCLC): 2.79 µM
- TGI (A549 NSCLC): 10.5 µM
- GI50 (A498 renal): 1.41 µM
- TGI (A498 renal): 4.38 µM
- GI50 (DU-145 prostate): 3.26 µM
- TGI (DU-145 prostate): 11.7 µM
- GI50 (NCI-H23 lung): 1.89 µM
- TGI (NCI-H23 lung): 6.78 µM
- GI50 (HCT-116 colon): 1.79 µM
- TGI (HCT-116 colon): 5.22 µM
- GI50 (KM12 colon): 2.45 µM
- TGI (KM12 colon): 8.15 µM
- GI50 (EKVX NSCLC): 2.75 µM
- TGI (EKVX NSCLC): 10.9 µM
- GI50 (SF-295 CNS): 1.92 µM
- TGI (SF-295 CNS): 5.21 µM
- GI50 (SNB-19 CNS): 2.7 µM
- TGI (SNB-19 CNS): 13.4 µM
- GI50 (IGROV1 ovarian): 3.59 µM
- TGI (IGROV1 ovarian): 14.3 µM
- GI50 (OVCAR-4 ovarian): 1.41 µM
- TGI (OVCAR-4 ovarian): 9.32 µM
- GI50 (MDA-MB-435): 2.32 µM
- TGI (MDA-MB-435): 9.33 µM
- GI50 (ACHN renal): 2.78 µM
- TGI (ACHN renal): 11.4 µM
- GI50 (CAKI-1 renal): 1.79 µM
- TGI (CAKI-1 renal): 6.23 µM
- GI50 (OVCAR-5 ovarian): 4.32 µM
- TGI (OVCAR-5 ovarian): 18.3 µM
- GI50 (SF-268 CNS): 3.52 µM
- TGI (SF-268 CNS): 16 µM
- GI50 (SK-MEL-28 melanoma): 3.1 µM
- TGI (SK-MEL-28 melanoma): 15.1 µM
- GI50 (LOX IMVI melanoma): 2.36 µM
- TGI (LOX IMVI melanoma): 5.96 µM
- GI50 (HOP-92 NSCLC): 1.37 µM
- TGI (HOP-92 NSCLC): 5.44 µM
- GI50 (T-47D breast): 0.799 µM
- TGI (T-47D breast): 6.4 µM
- GI50 (SK-MEL-2 melanoma): 2.19 µM
- TGI (SK-MEL-2 melanoma): 6.03 µM
- GI50 (COLO 205 colon): 1.91 µM
- TGI (COLO 205 colon): 3.84 µM
- GI50 (CCRF-CEM leukemia): 2.13 µM
- TGI (CCRF-CEM leukemia): 7.71 µM
- GI50 (PC-3 prostate): 2.14 µM
- TGI (PC-3 prostate): 8.83 µM
- GI50 (RXF 393 renal): 2.01 µM
- TGI (RXF 393 renal): 5.75 µM
- GI50 (NCI-H522 lung): 1.14 µM
- TGI (NCI-H522 lung): 5.21 µM
- GI50 (HT29 colon): 3.28 µM
- TGI (HT29 colon): 11.6 µM
- GI50 (SN12C renal): 2.54 µM
- TGI (SN12C renal): 12.5 µM
- GI50 (UO-31 renal): 2.51 µM
- TGI (UO-31 renal): 10.5 µM
- GI50 (SF-539 CNS): 3.15 µM
- TGI (SF-539 CNS): 10.4 µM
- GI50 (U251 CNS): 2.34 µM
- TGI (U251 CNS): 10.9 µM
- GI50 (786-0 renal): 2.89 µM
- TGI (786-0 renal): 12.4 µM
- GI50 (MALME-3M melanoma): 2.66 µM
- TGI (MALME-3M melanoma): 7.71 µM
- GI50 (NCI-H226 lung): 2.75 µM
- TGI (NCI-H226 lung): 12.3 µM
- GI50 (SK-OV-3 ovarian): 2.91 µM
- TGI (SK-OV-3 ovarian): 10.1 µM
- GI50 (RPMI-8226 leukemia): 1.26 µM
- TGI (RPMI-8226 leukemia): 3.77 µM
- GI50 (K-562 leukemia): 1.44 µM
- TGI (K-562 leukemia): 9.56 µM
- GI50 (HCC-2998 colon): 2.6 µM
- TGI (HCC-2998 colon): 10.1 µM
- GI50 (NCI/ADR-RES ovarian): 2.5 µM
- TGI (NCI/ADR-RES ovarian): 7.79 µM
- GI50 (OVCAR-3 ovarian): 2.43 µM
- TGI (OVCAR-3 ovarian): 9.63 µM
- GI50 (SW-620 colon): 2.93 µM
- TGI (SW-620 colon): 10.7 µM
- GI50 (MCF7 breast): 1.99 µM
- TGI (MCF7 breast): 7.77 µM
- GI50 (HCT-15 colon): 2.37 µM
- TGI (HCT-15 colon): 9.19 µM
- GI50 (SK-MEL-5 melanoma): 1.42 µM
- TGI (SK-MEL-5 melanoma): 3.51 µM
- GI50 (TK-10 renal): 2.94 µM
- TGI (TK-10 renal): 11.6 µM
- GI50 (OVCAR-8 ovarian): 3.2 µM
- TGI (OVCAR-8 ovarian): 14 µM
